In patent US6251882A, “Alkyl ketones as potent anti-cancer agents” (Parker Hughes Institute, priority 1999, dated 2001):
Counter-ions that a name gives are not always drawn. Residues, ends and D or L forms follow the SMILES beside them. *: point of attachment. Farnesyl = CC(C)=CCC/C(C)=C/CC/C(C)=C/C*; Boc = CC(C)(C)OC(=O)*; CH2Cl = ClC*

How the values were obtained:
[1] = system: Molt-3 (T-lineage ALL); assay: MTT cytotoxicity assay, Molt-3; format: cell-based, human; conditions: Homo sapiens, MOLT-3, MTT, 24-36 hours at 37° C., 0.1 to 250 μM
Method: (§1) Cytotoxicity of various compounds against tumor cells was performed using the MTT (3-[4,5-[…]]-2,5-diphenyl tetrazolium bromide) assay (Boehringer Mannheim Corp., Indianapolis, Ind.). Unless otherwise specified, all cell lines were obtained from the American Type Culture Collection (ATCC). Briefly, exponentially growing cells were seeded into a 96-well plate at a density of 2.5×10^4 cells/well and incubated for 36 hours at 37° C. prior to drug exposure. On the day of treatment, culture medium was carefully aspirated from the wells and replaced with fresh medium containing the indicated compound at concentrations ranging from 0.1 to 250 μM. Triplicate wells were used for each treatment.
(§2) Human leukemic cell lines (NALM-6, MOLT-3) glioblastoma cells (U373) and human breast tumor cell lines (BT20 and MDA-MB-231) were obtained from the American Type Culture Collection and maintained as a continuous cell line in Dulbecco's modified Eagles's medium supplemented with 10% fetal bovine serum and antibiotics.
(§3) The cells were incubated with the various compounds for 24-36 hours at 37° C. in a humidified 5% CO2 atmosphere. To each well, 10 μl of MTT (0.5 mg/ml final concentration) was added and the plates were incubated at 37° C. for 4 hours to allow MTT to form formazan crystals by reacting with metabolically active cells. The formazan crystals were solubilized overnight at 37° C. in a solution containing 10% SDS in 0.01 M HCl. The absorbence of each well was measured in a microplate reader (Labsystems) at 540 nm and a reference wavelength of […]. To translate the OD540 values into the number of live cells in each well, the OD540 values were compared to those on standard OD540 --versus--cell number curves generated for each cell line. The percent survival was calculated using the formula: [formula]
(§4) The IC50 values were calculated by non-linear regression analysis and are shown below in Tables 1-6.

[2] = system: BT-20 (breast cancer); assay: MTT cytotoxicity assay, BT-20; format: cell-based; conditions: Homo sapiens, 24-36 hours at 37° C., 0.1 to 250 μM
Method: as §1, §2, §3, §4

[3] = system: U-373 (glioblastoma); assay: MTT cytotoxicity assay, U-373; format: cell-based; conditions: Homo sapiens, U373 MG, 24-36 hours at 37° C., 0.1 to 250 μM
Method: as §1, §2, §3, §4

[4] = system: PC-3 (prostate cancer); assay: MTT cytotoxicity assay, PC-3; format: cell-based; conditions: 24-36 hours at 37° C., 0.1 to 250 μM
Method: as §1, §3, §4

[5] = system: Nalm-6 (B-lineage ALL); assay: MTT cytotoxicity assay, Nalm-6; format: cell-based; conditions: Homo sapiens, 24-36 hours at 37° C., 0.1 to 250 μM
Method: as §1, §2, §3, §4

| SMILES | IC50 [1] [µM] | IC50 [2] [µM] | IC50 [3] [µM] | IC50 [4] [µM] | IC50 [5] [µM] |
| --- | --- | --- | --- | --- | --- |
| CC(C)=CCC/C(C)=C/CC/C(C)=C/CSC[C@H](NC(=O)OC(C)(C)C)C(=O)C=[N+]=[N-] [HI-82, N-Boc-S-farnesyl-Cys diazomethyl ketone] | 50.1 | > 100 | > 100 | > 100 | 49.8 |
| CC(C)=CCC/C(C)=C/CC/C(C)=C/CSCCC(=O)C=[N+]=[N-] [HI-83, S-trans-trans-Farnesyl-mercaptoethyl diazomethyl ketone] | 6.8 | > 100 | > 100 | > 100 | 53.5 |
| CC(C)=CCC/C(C)=C/CC/C(C)=C/CSCC(=O)C=[N+]=[N-] [HI-84, S-trans-trans-Farnesyl-mercaptomethyl diazomethyl ketone] | 60.3 | > 100 | > 100 | > 100 | > 100 |
| CC(=O)N[C@@H](CSC/C=C(\C)CCC=C(C)C)C(=O)C=[N+]=[N-] [HI-122, N-Ac-S-trans-geranyl-Cys diazomethyl ketone] | > 100 | > 100 | > 100 | > 100 | > 100 |
| CC(=O)N[C@@H](CSCC=C(C)C)C(=O)C=[N+]=[N-] [HI-123, N-Ac-S-(3-methyl-2-butenyl)-Cys diazomethyl ketone] | > 100 | > 100 | > 100 | > 100 | > 100 |
| CC(C)=CCC/C(C)=C/CC/C(C)=C/CSC[C@H](NC(=O)OC(C)(C)C)C(=O)CCl [HI-124, N-Boc-S-farnesyl-Cys chloromethyl ketone] | 7.7 | > 100 | > 100 | > 100 | 10.7 |
| CC(C)=CCC/C(C)=C/CC/C(C)=C/CSCCC(=O)CCl [HI-125, S-trans-trans-Farnesyl-2-mercaptoethyl chloromethyl ketone] | 35.5 | > 100 | > 100 | > 100 | 40.7 |
| CC(C)=CCC/C(C)=C/CC/C(C)=C/CSCC(=O)CCl [HI-126, S-trans-trans-Farnesyl-mercaptomethyl chloromethyl ketone] | > 100 | > 100 | > 100 | > 100 | 84.3 |
| CC(=O)N[C@@H](CSC/C=C(\C)CCC=C(C)C)C(=O)CCl [HI-127, N-Ac-S-trans-geranyl-Cys chloromethyl ketone] | > 100 | > 100 | > 100 | > 100 | > 100 |
| CC(=O)N[C@@H](CSCC=C(C)C)C(=O)CCl [HI-128, N-Ac-S-(3-methyl-2-butenyl)-Cys chloromethyl ketone] | 7.9 | 25.7 | > 100 | 47.8 | 12.6 |
| CCCCCCCCCCCCSC[C@H](NC(=O)OC(C)(C)C)C(=O)CCl [HI-129, N-Boc-S-dodecyl-Cys chloromethyl ketone] | 15.5 | 48.9 | > 100 | 64.6 | 15.1 |
| CC(C)=CCC/C(C)=C/CC/C(C)=C/CSC[C@H](NC(=O)CNC(=O)OC(C)(C)C)C(=O)CCl [HI-130, N-Boc-Gly-S-trans-trans-farnesyl-Cys chloromethyl ketone] (Boc-Gly-Cys(Farnesyl)-CH2Cl) | 17.5 | > 100 | 71.3 | > 100 | 12.9 |
| CCCCCCCCCCCCSC[C@H](N)C(=O)CCl [HI-252, S-Dodecyl-Cys chloromethyl ketone hydrochloride] | 12.5 | > 100 | > 100 | > 100 | 17.7 |
| CCCCCCCCCCCCOC[C@H](NC(=O)OC(C)(C)C)C(=O)CCl [HI-266, N-Boc-O-dodecyl serine chloromethyl ketone] |  | 49.9 | 37.1 |  | 64.5 |
| CCCCCCCCCCCCSC[C@H](NC(C)=O)C(=O)N(C)OC [HI-267, N-Ac-S-dodecyl-Cys-N(OCH3)-CH3] |  | > 100 | > 100 | > 100 | 50.1 |
| CCCCCCCCCCCCSC[C@H](NC(=O)c1cccc(N(C)C)c1)C(=O)CCl [HI-268, N-3-Dimethylaminobenzoyl-S-dodecyl-cysteine chloromethyl ketone] |  | > 100 | > 100 | > 100 | 96.1 |

| SMILES | IC50 [1] [µM] | IC50 [2] [µM] | IC50 [3] [µM] | IC50 [4] [µM] | IC50 [5] [µM] |
| --- | --- | --- | --- | --- | --- |
| CCCCCCCCCCCCSC[C@H](NC(C)=O)C(=O)CSc1ccccc1 [HI-269, N-Ac-S-dodecyl-Cys-CH2 -SPh] | > 100 | > 100 | > 100 | > 100 | > 100 |
| CCCCCCCCCCCCSC[C@H](NC(C)=O)C(=O)CSCCC(=O)O [HI-273, N-Ac-S-dodecyl-Cys-CH2 -S-CH2 CH2 CO2 H] | 50.3 | 20.1 | > 100 | > 100 | 44.4 |
| CCCCCCCCCCCCSC[C@@H](C=O)NC(C)=O [HI-274, N-Ac-S-dodecyl-Cys-H] | 13.1 | 22.8 | > 100 |  | 12.6 |
| CCCCCCCCCCCCSC[C@H](NC(C)=O)C(=O)CSc1ccc2ccccc2c1 [HI-302, N-Ac-S-dodecyl-Cys-CH2 -S-2-naphthyl] | > 100 | > 100 | > 100 | > 100 | > 100 |
| CCCCCCCCCCCCSC[C@H](NC(=O)OCC)C(=O)CCl [HI-319] | 84.2 | > 100 | > 100 | > 100 | 77.6 |
| CCCCCCCCCCCCSC[C@H](NC(=O)OCc1ccccc1)C(=O)CCl [HI-320, N-Benzyloxycarbonyl-S-dodecylcysteine chloromethyl ketone] | > 100 | > 100 | > 100 | > 100 | 13.5 |
| CCCCCCCCCCCCSC[C@H](NC(C)=O)C(=O)C=[N+]=[N-] [HI-348, N-Ac-S-dodecyl-Cys diazomethyl ketone] | 22.9 | 97.9 | > 100 | > 100 | 15.4 |
| CC(=O)N[C@@H](CSC(C)(C)C)C(=O)CCl [HI-349, N-Ac-S-t-butyl-cysteine chloromethyl ketone] | 71.9 | > 100 | > 100 | > 100 | 71 |
| CC(=O)N[C@@H](CSC(c1ccccc1)(c1ccccc1)c1ccccc1)C(=O)CCl [HI-350, N-Ac-S-trityl-cysteine chloromethyl ketone] | 26.4 | 88.8 | 87.1 | 52.2 | 10 |
| COc1ccc(CSC[C@H](NC(C)=O)C(=O)CCl)cc1 [HI-351, N-Ac-S-4-methoxybenzyl-cysteine chloromethyl ketone] | 4.75 | 73.1 | 45.6 | 43.8 | 60.2 |
| CCCCCCCCCCCCSC[C@H](NC(C)=O)C(=O)CSC(c1ccccc1)(c1ccccc1)c1ccccc1 [HI-365] | 97.3 | > 100 | > 100 | > 100 | 93.1 |
| CC(=O)N[C@@H](CSC/C=C(\C)CC/C=C(\C)CCC=C(C)C)C(=O)C=[N+]=[N-] [HI-367, N-Ac-S-trans-trans-farnesyl-Cys diazomethyl ketone] | 32.2 | > 100 | > 100 | > 100 | 30.3 |
| CC(=O)N[C@@H](CSC/C=C(\C)CC/C=C(\C)CCC=C(C)C)C(=O)CCl [HI-368, N-Ac-S-trans-trans-farnesyl-Cys chloromethyl ketone] | 1.4 | 55.8 | 61.3 | 26.8 | 3 |
| CC(=O)N[C@@H](CSC(=O)OCc1ccccc1)C(=O)CCl [HI-389, N-Ac-S-benzyloxycarbonyl-cysteine chloromethyl ketone] | 3.5 | 49.3 | 54.4 | 23.4 | 1.2 |
| CC(=O)N[C@@H](CSCc1ccc2ccccc2c1)C(=O)CCl [HI-392, N-Ac-S-2-naphthylmethyl-cysteine chloromethyl ketone] | 2.9 | 40.4 | 41.8 | 36.6 | 2.6 |
